Measured values taken from patent US12570675B2, “Boronic acid compounds” (LG CHEM, LTD., priority 2020, dated 2026).

Assays:
[1] = biological target: Proteasome chymotrypsin-like activity (S26 protein from RPMI8226 cells) (Homo sapiens, UniProt P28074); format: biochemical; conditions: S26 protein from RPMI8226 cell extract 2 ug/well, substrate 20 uM, 37° C., 90 minutes; read-out: Proteasome chymotrypsin-like activity inhibition IC50
Summary of the method: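 RPMI8226 myeloma cell lysate (S26 fraction, 20 mM Tris-HCl pH 8.0; 2 ug/well) incubated with compound serially diluted from 10 uM (0.5% DMSO) and 20 uM Suc-LLVY-AMC (chymotrypsin-like) or Z-LLE-AMC (caspase-like) for 90 min at 37 °C. Fluorescence read; IC50 from % of uninhibited signal.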

[2] = biological target: Proteasome caspase-like activity (S26 protein from RPMI8226 cells) (Homo sapiens (Human), UniProt P28072); assay: Proteasome caspase-like activity inhibition (Z-Leu-Leu-Glu-AMC fluorogenic substrate, RPMI8226 cell extract); format: biochemical; conditions: S26 protein from RPMI8226 cell extract 2 ug/well, substrate 20 uM, 37° C., 90 minutes
Experimental: The abilities to inhibit the proteasome activity of the compounds described in the Examples of the present invention and boronic acid drugs were evaluated as follows.
RPMI8226 cells, which is a multiple myeloma cell line, were cultured and then separated by a centrifuge, and washed twice with phosphate buffered saline (PBS). 20 mM of a tris-HCl (pH 8.0) buffer solution was added to the washed cells, and the cells were disrupted by a homogenizer and centrifuged to obtain S26 protein from the supernatant. Suc-Leu-Leu-Val-Tyr-AMC, for a fluorogenic substrate for the chymotrypsin-like activity of the proteasome, and Z-Leu-Leu-Glu-AMC, for a fluorogenic substrate for the caspase-like activity, were purchased from Calbiochem, EMD Millipore and used. Into each well of a 96-well plate (opaque, black round bottom), 20 ul of the S26 protein (final RPMI8226 cell extract concentration: 2 ug/well), 10 ul of S26 proteasome inhibitor serially diluted from 10 uM (final DMSO concentration: 0.5%), and 20 ul of the fluorogenic substrate for the proteasome chymotrypsin-like or caspase-like activity (final concentration: 20 uM) were added and mixed and allowed to react in a 37° C. incubator for 90 minutes. The fluorescence of the fluorogenic substrate was measured by FlexStation II Fluorometer (Molecular Devices). The fluorescence inhibited by the compound diluted at each concentration was measured as the relative percentage value for the amount obtained from the treatment only with the S26 protein and the fluorogenic substrate. IC50 (inhibitory concentration 50) was expressed in terms of a concentration that inhibits 50% of the maximum fluorescence induced by the fluorogenic substrate.

Proteasome caspase-like activity (S26 protein from RPMI8226 cells), sequence (P28072 whole entry): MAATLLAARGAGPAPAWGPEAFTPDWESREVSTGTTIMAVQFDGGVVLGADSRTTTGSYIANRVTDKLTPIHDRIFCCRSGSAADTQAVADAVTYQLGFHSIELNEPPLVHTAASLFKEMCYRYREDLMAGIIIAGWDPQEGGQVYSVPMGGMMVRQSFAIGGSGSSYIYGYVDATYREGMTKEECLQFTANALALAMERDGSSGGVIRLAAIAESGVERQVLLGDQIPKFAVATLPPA
Proteasome chymotrypsin-like activity (S26 protein from RPMI8226 cells), sequence (P28074 60-263 limits assumed): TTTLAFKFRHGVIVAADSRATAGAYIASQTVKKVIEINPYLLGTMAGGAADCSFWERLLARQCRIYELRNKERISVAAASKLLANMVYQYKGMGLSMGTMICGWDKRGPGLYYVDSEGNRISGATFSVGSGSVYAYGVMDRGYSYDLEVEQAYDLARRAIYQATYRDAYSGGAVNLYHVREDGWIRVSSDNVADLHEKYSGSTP

Row | SMILES | IC50 [1] | IC50 [2]
1 | CC(C)C[C@H](NC(=O)C1(Cc2ccccc2)CC([C@@H](NC(=O)c2nccc3ccccc23)C(C)C)=NO1)B(O)O (stereo partly drawn) [Example 148, ((1R)-1-(5-benzyl-3-((S)-1-(isoquinolin-1-carboxamido)-2-methylpropyl)-4,5-dihydroisoxazol-5-carboxamido)-3-methylbutyl)boronic acid] | < 25 nM | > 1000 nM
2 | CCCC1(C(=O)N[C@@H](CC(C)C)B(O)O)CC(CNC(=O)c2cc(Cl)ccc2Cl)=NO1 (stereo partly drawn) [Example 88, ((1R)-1-(3-((2,5-dichlorobenzamido)methyl)-5-propyl-4,5-dihydroisoxazol-5-carboxamido)-3-methylbutyl)boronic acid] | < 25 nM | > 2500 nM
3 | CC(C)C[C@H](NC(=O)C1(CCc2ccccc2)CC(CNC(=O)c2nccc3ccccc23)=NO1)B(O)O (stereo partly drawn) [Example 162, ((1R)-1-(3-((isoquinolin-1-carboxamido)methyl)-5-penetyl-4,5-dihydroisoxazol-5-carboxamido)-3-methylbutyl)boronic acid] | < 25 nM | > 1000 nM
4 | CCC1(C(=O)N[C@@H](CC(C)C)B(O)O)CC(CNC(=O)c2cc(Cl)ccc2Cl)=NO1 (stereo partly drawn) [Example 87, ((1R)-1-(3-((2,5-dichlorobenzamido)methyl)-5-ethyl-4,5-dihydroisoxazol-5-carboxamido)-3-methylbutyl)boronic acid] | < 50 nM | > 2500 nM
5 | CC(C)C[C@H](NC(=O)C1(Cc2ccccc2)CC(CNC(=O)c2cnn(C(C)C)c2)=NO1)B(O)O (stereo partly drawn) [Example 188, ((1R)-1-(5-benzyl-3-((1-isopropyl-1H-pyrazol-4-carboxamido)methyl)-4,5-dihydroisoxazol-5-carboxamido)-3-methylbutyl)boronic acid] | < 10 nM | > 1000 nM
6 | CC(C)C[C@H](NC(=O)C1(Cc2ccccc2)CC(CNC(=O)c2cccc3c2CCCC3)=NO1)B(O)O (stereo partly drawn) [Example 115, ((1R)-1-(5-benzyl-3-((5,6,7,8-tetrahydronaphthalen-1-carboxamido)methyl)-4,5-dihydroisoxazol-5-carboxamido)-3-methylbutyl)boronic acid] | < 10 nM | > 1000 nM
7 | Cc1cc(C(=O)NCC2=NOC(Cc3ccccc3)(C(=O)N[C@@H](CC(C)C)B(O)O)C2)no1 (stereo partly drawn) [Example 107, ((1R)-1-(5-benzyl-3-((5-methylisoxazol-3-carboxamido)methyl)-4,5-dihydroisoxazol-5-carboxamido)-3-methylbutyl)boronic acid] | < 10 nM | > 500 nM
8 | Cc1cccc(COCC2=NOC(Cc3ccccc3)(C(=O)N[C@@H](CC(C)C)B(O)O)C2)n1 (stereo partly drawn) [Example 47, ((1R)-1-(5-benzyl-3-(((6-methylpyridin-2-yl)methoxy)methyl)-4,5-dihydroisoxazol-5-carboxamido)-3-methylbutyl)boronic acid] | < 10 nM | > 250 nM
9 | CC(C)C[C@H](NC(=O)C1CC(CNC(=O)c2cccc3c2CCCC3)=NO1)B(O)O (stereo partly drawn) [Example 63, ((1R)-3-methyl-1-(3-((5,6,7,8-tetrahydronaphthalen-1-carboxamido)methyl)-4,5-dihydroisoxazol-5-carboxamido)butyl)boronic acid] | < 10 nM | > 500 nM
10 | Cc1ccc(F)cc1C(=O)NCC1=NOC(C(=O)N[C@@H](CC(C)C)B(O)O)C1 (stereo partly drawn) [Example 82, ((1R)-1-(3-((5-fluoro-2-methylbenzamido)methyl)-4,5-dihydroisoxazol-5-carboxamido)-3-methylbutyl)boronic acid] | < 50 nM | > 500 nM
11 | CC(C)C[C@H](NC(=O)C1(Cc2ccccc2)CC(COCc2ccccc2)=NO1)B(O)O (some centres unmarked) [Example 256] | < 10 nM | > 1000 nM

Now from value to molecule:

Row | IC50 [1] | IC50 [2] | SMILES
12 | < 10 nM | > 500 nM | Cc1nc(C)c(C(=O)NCC2=NOC(Cc3ccccc3)(C(=O)N[C@@H](CC(C)C)B(O)O)C2)s1 (stereo partly drawn) [Example 130, ((1R)-1-(5-benzyl-3-((2,4-dimethylthiazol-5-carboxamido)methyl)-4,5-dihydroisoxazol-5-carboxamido)-3-methylbutyl)boronic acid]
13 | < 10 nM | > 500 nM | Cc1cccc(C(=O)NCC2=NOC(Cc3ccccc3)(C(=O)N[C@@H](CC(C)C)B(O)O)C2)n1 (stereo partly drawn) [Example 160, ((1R)-1-(5-benzyl-3-((6-methylpicolinamido)methyl)-4,5-dihydroisoxazol-5-carboxamido)-3-methylbutyl)boronic acid]
14 | < 10 nM | > 250 nM | Cc1cnc(C(=O)NCC2=NOC(Cc3ccccc3)(C(=O)N[C@@H](CC(C)C)B(O)O)C2)cn1 (stereo partly drawn) [Example 151, [(1R)-1-[[5-benzyl-3-[[(5-methylpyrazin-2-carbonyl)amino]methyl]-4H-1,2-oxazol-5-carbonyl]amino]-3-methyl-butyl]boronic acid]
15 | < 10 nM | > 1000 nM | CC(C)C[C@H](NC(=O)C1(Cc2ccccc2)CC([C@H](CC(C)C)NC(=O)c2nccc3ccccc23)=NO1)B(O)O (stereo partly drawn) [Example 152, ((1R)-1-(5-benzyl-3-((S)-1-(isoquinolin-1-carboxamido)-3-methylbutyl)-4,5-dihydroisoxazol-5-carboxamido)-3-methylbutyl)boronic acid]
16 | < 10 nM | > 500 nM | CC(C)C[C@H](NC(=O)C1CC(CNC(=O)c2nccc3ccccc23)=NO1)B(O)O (stereo partly drawn) [Example 61, ((1R)-1-(3-((isoquinolin-1-carboxamido)methyl)-4,5-dihydroisoxazol-5-carboxamido)-3-methylbutyl)boronic acid]
17 | < 10 nM | > 250 nM | CC(C)C[C@H](NC(=O)C1(Cc2ccccc2)CC(CNC(=O)c2nn(C)c3ccccc23)=NO1)B(O)O (stereo partly drawn) [Example 201, ((1R)-1-(5-benzyl-3-((1-methyl-1H-indazol-3-carboxamido)methyl)-4,5-dihydroisoxazol-5-carboxamido)-3-methylbutyl)boronic acid]
18 | < 10 nM | > 1000 nM | Cc1cc(C(=O)NCC2=NOC(Cc3ccccc3)(C(=O)N[C@@H](CC(C)C)B(O)O)C2)n(-c2ccccc2)n1 (stereo partly drawn) [Example 246, ((1R)-1-(5-benzyl-3-((3-methyl-1-phenyl-1H-pyrazol-5-carboxamido)methyl)-4,5-dihydroisoxazol-5-carboxamido)-3-methylbutyl)boronic acid]
19 | < 10 nM | > 1000 nM | CC(C)C[C@H](NC(=O)C1(Cc2ccccc2)CC(CNC(=O)c2cccc(C(F)(F)F)n2)=NO1)B(O)O (stereo partly drawn) [Example 186, ((1R)-1-(5-benzyl-3-((6-(trifluoromethyl)picolinamido)methyl)-4,5-dihydroisoxazol-5-carboxamido)-3-methylbutyl)boronic acid]
20 | < 10 nM | > 2500 nM | Cc1cc(C(=O)NCC2=NOC(Cc3ccccc3)(C(=O)N[C@@H](CC(C)C)B(O)O)C2)n(C(C)C)n1 (stereo partly drawn) [Example 190, ((1R)-1-(5-benzyl-3-((1-isopropyl-3-methyl-1H-pyrazol-5-carboxamido)methyl)-4,5-dihydroisoxazol-5-carboxamido)-3-methylbutyl)boronic acid]
21 | < 10 nM | > 500 nM | CC(C)C[C@H](NC(=O)C1(Cc2cccc(F)c2)CC(CNC(=O)c2nccc3ccccc23)=NO1)B(O)O (stereo partly drawn) [Example 187, ((1R)-1-(5-(3-fluorobenzyl)-3-((isoquinolin-1-carboxamido)methyl)-4,5-dihydroisoxazol-5-carboxamido)-3-methylbutyl)boronic acid]
22 | < 10 nM | > 250 nM | CC(C)C[C@H](NC(=O)C1(Cc2ccccc2)CC(CNC(=O)c2ccc3c(ccn3C(C)C)c2)=NO1)B(O)O (stereo partly drawn) [Example 129, ((1R)-1-(5-benzyl-3-((1-isopropyl-1H-indol-5-carboxamido)methyl)-4,5-dihydroisoxazol-5-carboxamido)-3-methylbutyl)boronic acid]
23 | < 10 nM | > 250 nM | Cc1nc(COCC2=NOC(Cc3ccccc3)(C(=O)N[C@@H](CC(C)C)B(O)O)C2)cs1 (stereo partly drawn) [Example 46, ((1R)-1-(5-benzyl-3-(((2-methylthiazol-4-yl)methoxy)methyl)-4,5-dihydroisoxazol-5-carboxamido)-3-methylbutyl)boronic acid]
24 | < 10 nM | > 1000 nM | CC(C)C[C@H](NC(=O)C1(Cc2ccccc2)CC(CNC(=O)c2ccnn2C2CCCC2)=NO1)B(O)O (stereo partly drawn) [Example 189, ((1R)-1-(5-benzyl-3-((1-cyclopentyl-1H-pyrazol-5-carboxamido)methyl)-4,5-dihydroisoxazol-5-carboxamido)-3-methylbutyl)boronic acid]
25 | < 10 nM | > 100 nM | CC(C)C[C@H](NC(=O)C1(Cc2ccccc2)CC(CNC(=O)c2n[nH]c3ccccc23)=NO1)B(O)O (stereo partly drawn) [Example 200, ((1R)-1-(3-((1H-indazol-3-carboxamido)methyl)-5-benzyl-4,5-dihydroisoxazol-5-carboxamido)-3-methylbutyl)boronic acid]
